The source of these data is patent publication US6670334B2, “Method and compositions for treating the inflammatory response” (University of Virginia Patent Foundation, priority 2001, dated 2003).

Assay [1] relates to Adult wistar rats with bacteria meningitis (BM). Briefly: Rat model of inflammation (bacteria meningitis): CSF WBC pleocytosis and blood-brain barrier permeability. In kind it is in vivo. As to the method:
Effects of WRC-0470 and rolipram on the extravasation of white blood cells in a rat model of inflammation. Adult wistar rats (approximately 200 g) were anesthetized with intermuscular injections of ketamine and xylazine. Bacteria meningitis (BM) was introduced via intracistemal inoculation of either E. coli strain 026:B6LPS (200 ng), cytokines (IL-1 and TNFα or LPS plus cytokines). The animals were then infused with rolipram and/or WRC-1470 over the duration of the experiment using a Harvard pump. CSF (cerebrospinal fluid) and blood was then sampled at 4 h post-inoculation and alterations in BBBP (blood-brain barrier permeability) and WBC (white blood cell) counts were determined. CSF and WBC concentrations were determined with standard hemacytometer methods. For assessment of % BBBP, rats were given an intravenous injection of 5 μCi 125I-labeled bovine serum albumin concomitant with intracistemal inoculation. Equal samples of CSF and blood were read simultaneously in a gamma counter and after subtraction of background radioactivity, % BBBP was calculated by the following formula: % BBBP=(cpm CSF/cpm blood)×100. All statistical tests were performed using Instat biostatistical software to compare the post-inoculation samples of experimental rats with the control rats. The statistical tests used to generate p-values were Student's t-test and ANOVA.

For assay [2], the system named is Human PMN adherent to fibrinogen. Briefly: TNFα-stimulated superoxide release of PMN adherent to a fibrinogen coated surface. In kind it is cell-based. The note with it: rolipram 100 nM; WRC-0474[SHA 211] 30-300 nM, other agonists 300 nM; p<0.05; FIG. 5.
The test system of another assay is human neutrophils. Briefly: Neutrophil oxidative activity (luminol-enhanced chemiluminescence), TNF/f-met-leu-phe stimulation. The class given is cell-based. The note with it: TNF-alpha 10 U/ml primed, fMLP 1 μM stimulated, ADA 1 Units/ml, FIG. 13, read-out: EC50 for decreasing neutrophil oxidative activity. An excerpt: A2A agonists blocking of neutrophil oxidative activity. […] This was detected by luminol-enhanced chemiluminescence. The EC50's were lower for the ester when compared to its acid.
A one-step Ficoll-Hypaque separation procedure (Ferrante and Thong, 1980) was used to purify human neutrophils from normal heparinized (10 Units/ml) of venous blood yielding approximately 98% neutrophils; having about >95% viable as determined with trypan blue containing <50 pg/ml of endotoxin. Following separation, the neutrophils were washed with Hank's balanced salt solution (HBSS) three times.
Neutrophil oxidative activity (luminol-enhanced chemiluminescence): The activated neutrophils emit light from unstable high-energy oxygen species produced by the plasma membrane associated NADPH oxidase and metabolized by cytoplasmic and granule enzymes. The light signal from activated neutrophils can be enhanced by the addition of luminol to the samples. […]
The purified neutrophils (1×10^6/ml) were incubated in HBSS containing 0.1% HSA (1 ml), plus adenosine deaminase (1 Units/ml), ±JR2171 or ±CGS21680, and with TNF-alpha (10 U/ml) for 30 min at 37° C. in a shaking water bath. Then luminol ([…]) enhanced f-met-leu-phe (1 μM)-stimulated chemiluminescence was read with a Chronolog Photometer (Chronolog Corp., Havertown, Pa.) at 37° C. for 8 min. […]

For a further assay, the system named is PMN. As to the kind of experiment: TNF-stimulated PMN adherence to a fibrinogen-coated surface. The class given is cell-based, human. On the procedure:
PMN adherence to fibrinogen was measured as follows as adapted from Hanlon, J. Leukocyte Biol., 50, 43 (1991). Twenty-four well flat-bottomed tissue culture plates were incubated (37° C.) overnight with 0.5 ml of fibrinogen (5 mg/ml) dissolved in 1.5% NaHCO3. The plates were emptied and each well washed 2× with 1 ml of normal saline. The wells were then filled with 1 ml of HBSS-0.1% human serum albumin containing PMN (1×10^6/ml) with and without rhTNFα (1 U/ml), adenosine deaminase (ADA) (1 U/ML), WRC-0474[SHA 211] (10 nM), CGS21680 (30 nM), adenosine (100 nM) and rolipram (100 nM). The plates were incubated for 90 minutes at 37° C. in 5% CO2. Following incubation the tissue culture wells were washed free of non-adherent cells with normal saline. The adherent monolayer of PMN was lysed with 0.1% triton-X, the amount of lactic dehydrogenase (LDH) released from the monolayer assayed (LDH kit, Sigma Co., St. Louis, Mo.), and compared to a standard curve relating the LDH content to PMN numbers.

The test system of a further assay is human adherent monocytes. As to the kind of experiment: Production of TNFα by purified human adherent monocytes (endotoxin-stimulated, ELISA). In kind it is cell-based. The note with it: ZM241385 50 nM; p=0.020; FIG. 7B. On the procedure: Production of TNFα by purified human adherent monocytes. A monocyte rich monolayer (>95% monocytes) was prepared by incubating 1 ml of the mononuclear leukocyte fraction (5×10^5/ml) from a Ficoll-Hypaque separation in wells of a 24 well tissue culture plate (1 hr; 37° C.; 5% CO2). […] The samples were incubated for 4 hr (37° C.; 5% CO2) and the supernatants harvested. Any suspended cells were removed by centrifugation and the cell-free samples frozen (−70° C.). TNFα was assayed in the cell-free supernatants by an ELISA kit (Cistron Biotechnology, Pine Brook, N.J.).
On the technique in general: An ELISA detects its analyte on a solid surface through an enzyme-linked reagent.

For assay [3], the target named is recombinant human A2A adenosine receptors (Homo sapiens, UniProt P29274). As to the kind of experiment: Radioligand binding assay, competition for 125I-ZM241385.
recombinant human A2A adenosine receptors, sequence (P29274 whole entry): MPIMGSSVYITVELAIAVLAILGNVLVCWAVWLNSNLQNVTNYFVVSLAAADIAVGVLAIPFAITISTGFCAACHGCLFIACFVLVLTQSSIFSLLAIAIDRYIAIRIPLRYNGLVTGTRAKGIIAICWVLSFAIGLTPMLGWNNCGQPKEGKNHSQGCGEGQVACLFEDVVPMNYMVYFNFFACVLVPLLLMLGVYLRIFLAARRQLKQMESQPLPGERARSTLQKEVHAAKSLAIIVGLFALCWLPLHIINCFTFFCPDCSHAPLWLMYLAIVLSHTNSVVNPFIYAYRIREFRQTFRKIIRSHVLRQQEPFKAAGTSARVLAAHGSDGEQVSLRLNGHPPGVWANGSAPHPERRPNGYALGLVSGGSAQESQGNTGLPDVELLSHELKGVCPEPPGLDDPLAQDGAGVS

Consider `COc1ccc(C2CNC(=O)C2)cc1OC1CCCC1` (stereo not drawn) [Rolipram, 4-(3-cyclopentyloxy-4-methoxyphenyl)-2-pyrrolidone], for which the “alterations of BBBP” value in assay [1] (0.002 μg/kg/hr) is listed as “no significant effect”; in assay [1] (0.01 or 0.005 μg/kg/hr, p<0.05), “significant inhibition”. Moreover, the “inhibition of CSF pleocytosis” value in assay [1] (0.01 μg/kg/hr, p<0.05, FIG. 10) is given as 99%. The “WBC migrated into the sub-arachnoid space (CSF WBC)” value in assay [1] (rolipram alone (0.001 μg/kg/hr), p<0.050) is 1,670±1,273 WBC/μl.
For the compound `Cc1ccc(CCOc2nc(N)c3ncn([C@@H]4O[C@H](CO)[C@@H](O)[C@H]4O)c3n2)cc1` [WRC-0090], the “TNFα-stimulated adherent PMN superoxide release, agonist combined with rolipram” value in assay [2] is listed as “synergistically decreased superoxide release”.
Take `CCNC(=O)C1OC(n2cnc3c(N)nc(NCCc4ccc(CCC(=O)O)cc4)nc32)C(O)C1O` (stereo not drawn) [CGS21680, 3-(4-{2-[6-amino-9-(5-ethylcarbamoyl-3,4-dihydroxy-tetrahydro-furan-2-yl)-9H-purin-2-ylamino]-ethyl}-phenyl)-propionic acid]: the EC50 – broadly, the concentration giving half of the maximal effect – with human neutrophils stood at 2.09 nM. The “TNF-stimulated PMN adherence, % adhered” value with PMN (30 nM, in the presence of ADA, TNF+ADA control 38%, p=0.004) was determined as 30%.
On to `Nc1nc(OCCc2ccc3ccccc3c2)nc2c1ncn2[C@@H]1O[C@H](CO)[C@@H](O)[C@H]1O` [WRC-0018], for which the “TNFα-stimulated adherent PMN superoxide release, agonist combined with rolipram” value in assay [2] was “synergistically decreased superoxide release”.
With `Nc1ncnc2c1ncn2[C@@H]1O[C@H](CO)[C@@H](O)[C@H]1O` [adenosine], the “TNF-stimulated PMN adherence, % adhered” value with PMN (100 nM, p=0.009 compared to TNF in the presence of ADA) is listed as 28%.
Take `Nc1nc(NCCc2ccc(O)cc2)nc2nc(-c3ccco3)nn12` [ZM241385, 4-(2-[7-amino-2-(2-furyl)[1,2,4]-triazolo[2,3a]-[1,3,5]trazinyl-amino]ethyl)-phenol]: the “antagonism of the effect of WRC-0470 (300 nM) combined with rolipram (300 nM) on TNFα release from monocytes” value with human adherent monocytes is given as “significantly inhibited the effect”.
For `CCNC(=O)C1OC(n2cnc3c(N)nc(NCCc4ccc(CCC(=O)OC)cc4)nc32)C(O)C1O` (stereo not drawn) [JR2171, 3-(4-{2-[6-Amino-9-(5-ethylcarbamoyl-3,4-dihydroxy-tetrahydro-furan-2-yl)9H-purin-2-ylamino]-ethyl}-phenyl)-propionic acid methyl ester], the EC50 with human neutrophils is 0.371 nM. For the same compound, the inhibitory constant (Ki) (as a rule, a measure of affinity in units of concentration, obtained from inhibition or displacement) in assay [3] worked out at 45 nM.
